Results as given in patent publication US11866414B2, “Substituted heterocyclic compounds” (BRISTOL-MYERS SQUIBB COMPANY, priority 2021, dated 2024).
Where two headings read alike, the source gives them in different places. Marks after values point to notes of the source that are not given here. Blank lines part the entries; values can stand above or below the compound they belong to.

Key:
[1] = Bidirectional permeability assay in Caco-2 cells; conditions: human, Caco-2, pH 7.4
[2] = Brain penetration in vivo assay (brain and plasma exposure); design: species or system mouse
Caco-2 cells [3] = conditions: human, Caco-2, 2 h, 3 μM, pH 7.4
[4] = Brain penetration in vivo assay (brain and plasma exposure)
Description: Brain Penetration In Vivo Assay
A pharmacokinetic study was performed using C57BL6 wild-type mice (n=3 per experiment) to determine brain and plasma exposure of compounds of the invention. The compound was administered orally in a solution of 5% ETHANOL: 90% PEG 300; 5% TPGS at 5 mL/kg for a final concentration of 10 mg/kg. Nice were euthanized 1 hour post-dose and plasma and brain were collected and frozen for analysis. Brain tissues were homogenized in a 1:1 volume of blank C57BL6 mouse plasma. Concentrations of the compound in plasma and brain homogenate were determined by LC-MS analysis.

[5] = system: IFNα-induced STAT phosphorylation (pSTAT5); assay: IFNα-induced STAT phosphorylation in human whole blood; type: cell-based; conditions: 1 h compound, 1000 U/mL IFNα A/D 15 min, CD3 positive population, read-out: Human Whole blood IFNa pSTAT5 IC50
in vitro = conditions: human, Caco-2, pH 7.4
Caco-2 cells [6] = assay: Bidirectional permeability assay in Caco-2 cells; conditions: for Efflux Ratio: Caco-2, 3 μM, pH 7.4, 2 hours; for CACO2 (A-B): permeability coefficient apical-to-basolateral, 3 μM, pH 7.4, 0.5% BSA, 2 hours, 37° C.

Papp A→B at 2 h, 3 μM [1]: 1.8 ± 0.7 ×10⁻⁶ cm/s
Papp B→A at 2 h, 3 μM [1]: 26.5 ± 7.4 ×10⁻⁶ cm/s
efflux ratio at 2 h, 3 μM [1]: 14.7
Compound: C[C@H]1O[C@@H](O[C@H]2[C@@H](O)C[C@H](O[C@H]3[C@@H](O)C[C@H](O[C@H]4CC[C@@]5(C)[C@H](CC[C@@H]6[C@@H]5C[C@@H](O)[C@]5(C)[C@@H](C7=CC(=O)OC7)CC[C@]65O)C4)O[C@@H]3C)O[C@@H]2C)C[C@H](O)[C@@H]1O [Digoxin, reference compound]

Compound: [2H]C([2H])([2H])NC(=O)c1nnc(NC(=O)C2CC2)cc1Nc1cccc(-c2cnn(CCF)n2)c1OC [Example 2, 6-cyclopropaneamido-4-({3-[2-(2-fluoroethyl)-2H-1,2,3-triazol-4-yl]-2-methoxyphenyl}amino)-N—(^2H3)methylpyridazine-3-carboxamide]
Ratio of exposure in brain to plasma (mouse) ([2]; footnote *: 2 mpk iv solution dose): 0.1*
CACO2 (A-B) (Caco-2 cells [3]): 427 nm/s

Ratio of exposure in brain to plasma (mouse) (1 h, 10 mpk, po) [4]: 0.3
CACO2 (A-B) (Caco-2 cells [3]): 368 nm/s
Compound: [2H]C([2H])([2H])NC(=O)c1nnc(NC(=O)C2CC2)cc1Nc1cccc(-c2cnn(CC(F)F)n2)c1OC [Example 3, 6-cyclopropaneamido-4-({3-[2-(2,2-difluoroethyl)-2H-1,2,3-triazol-4-yl]-2-methoxyphenyl}amino)-N—(^2H3)methylpyridazine-3-carboxamide]

IC50 [5]: 390 nM
Papp A→B at 2 h, 3 μM (in vitro): 41.6 ×10⁻⁶ cm/s
efflux ratio at 2 h, 3 μM (in vitro): 0.4
Kp at 40 min ([2]; C57BL6, mouse, brain / plasma, 2 mg/kg, footnote **: 2 mpk iv solution dose, exposures measured at 40 minutes, read-out: Ratio of exposure in brain to plasma (mouse)): 0.5
Compound: [2H]C([2H])([2H])NC(=O)c1nnc(NC(=O)OC)cc1Nc1cccc(-c2cnn(C)n2)c1OC [Example 7, methyl N-(5-{[2-methoxy-3-(2-methyl-2H-1,2,3-triazol-4-yl)phenyl]amino}-6-[(^2H3)methylcarbamoyl]pyridazin-3-yl)carbamate]

Ratio of exposure in brain to plasma (mouse) (1 h, 10 mpk, po) [4]: 0.1
CACO2 (A-B) (Caco-2 cells [3]): 340 nm/s
Compound: [2H]C([2H])([2H])NC(=O)c1nnc(NC(=O)C2CC2)cc1Nc1ccc(F)c(-c2cnn(CC)n2)c1OC [Example 10, 6-cyclopropaneamido-4-{[3-(2-ethyl-2H-1,2,3-triazol-4-yl)-4-fluoro-2-methoxyphenyl]amino}-N—(^2H3)methylpyridazine-3-carboxamide]

Ratio of exposure in brain to plasma (mouse) (1 h, 10 mpk, po) [4]: 0.7
CACO2 (A-B) (Caco-2 cells [3]): 173 nm/s
Compound: [2H]C([2H])([2H])NC(=O)c1nnc(NC(=O)C2CC2)cc1Nc1cc(F)cc(-c2cnn(C3CC3)n2)c1OC [Example 12, 6-cyclopropaneamido-4-{[3-(2-cyclopropyl-2H-1,2,3-triazol-4-yl)-5-fluoro-2-methoxyphenyl]amino}-N—(^2H3)methylpyridazine-3-carboxamide]

Compound: [2H]C([2H])([2H])NC(=O)c1nnc(NC(=O)[C@@H]2CC23CC3)cc1Nc1cccc(-c2cnn(C)n2)c1OC [Example 13, 4-{[2-methoxy-3-(2-methyl-2H-1,2,3-triazol-4-yl)phenyl]amino}-N—(^2H3)methyl-6-[(1R)-spiro[2.2]pentane-1-amido]pyridazine-3-carboxamide]
Efflux Ratio (Caco-2 cells [6]): 0.7
CACO2 (A-B) (Caco-2 cells [6]): 251 nm/s
Ratio of exposure in brain to plasma (mouse) (1 h, 10 mpk, po) [4]: 0.4

Ratio of exposure in brain to plasma (mouse) (1 h, 10 mpk, po) [4]: 0.8
CACO2 (A-B) (Caco-2 cells [3]): 446 nm/s
Compound: [2H]C([2H])([2H])NC(=O)c1nnc(NC(=O)C2CC2)cc1Nc1nccc(-c2cnn(C3CC3)n2)c1OC [Example 14, 6-cyclopropaneamido-4-{[4-(2-cyclopropyl-2H-1,2,3-triazol-4-yl)-3-methoxypyridin-2-yl]amino}-N—(^2H3)methylpyridazine-3-carboxamide]

CACO2 (A-B) (Caco-2 cells [3]): 63 nm/s
Compound: [2H]C([2H])([2H])NC(=O)c1nnc(NC(=O)C2CC2)cc1Nc1cc(Cl)cc(-c2cnn(CC)n2)c1OC [Example 15, 4-{[5-chloro-3-(2-ethyl-2H-1,2,3-triazol-4-yl)-2-methoxyphenyl]amino}-6-cyclopropaneamido-N—(^2H3)methylpyridazine-3-carboxamide]

CACO2 (A-B) (Caco-2 cells [3]): 392 nm/s
Compound: [2H]C([2H])([2H])NC(=O)c1nnc(NC(=O)C2CC2)cc1Nc1ccc(F)c(-c2cnn(C3CC3)n2)c1OC [Example 16, 6-cyclopropaneamido-4-{[3-(2-cyclopropyl-2H-1,2,3-triazol-4-yl)-4-fluoro-2-methoxyphenyl]amino}-N—(^2H3)methylpyridazine-3-carboxamide]

Ratio of exposure in brain to plasma (mouse) (1 h, 10 mpk, po) ([2]; footnote ***: nanosupension in 0.5% methocel A4M, 0.1% tween 80, 99.4% water): 0.2***
CACO2 (A-B) (Caco-2 cells [3]): 282 nm/s
Compound: [2H]C([2H])([2H])NC(=O)c1nnc(NC(=O)C2CC2)cc1Nc1cc(C)cc(-c2cnn(C)n2)c1OC [Example 17, 6-cyclopropaneamido-4-{[2-methoxy-5-methyl-3-(2-methyl-2H-1,2,3-triazol-4-yl)phenyl]amino}-N—(^2H3)methylpyridazine-3-carboxamide]

CACO2 (A-B) (Caco-2 cells [3]): 654 nm/s
Compound: [2H]C([2H])([2H])NC(=O)c1nnc(NC(=O)C2CC2)cc1Nc1ccc(F)c(-c2cnn(C)n2)c1OC [Example 18, 6-cyclopropaneamido-4-{[4-fluoro-2-methoxy-3-(2-methyl-2H-1,2,3-triazol-4-yl)phenyl]amino}-N—(^2H3)methylpyridazine-3-carboxamide]

Compound: [2H]C([2H])([2H])NC(=O)c1nnc(NC(=O)N2CCC2)cc1Nc1cccc(-c2cnn(C)n2)c1OC [Example 51, 6-[(azetidine-1-carbonyl)amino]-4-{[2-methoxy-3-(2-methyl-2H-1,2,3-triazol-4-yl)phenyl]amino}-N—(^2H3)methylpyridazine-3-carboxamide]
Efflux Ratio (Caco-2 cells [6]): 0.9
CACO2 (A-B) (Caco-2 cells [6]): 429 nm/s

CACO2 (A-B) (Caco-2 cells [3]): 482 nm/s
Compound: [2H]C([2H])([2H])NC(=O)c1nnc(NC(=O)C2CC2)cc1Nc1cccc(-c2cnn(C([2H])([2H])[2H])n2)c1OC [Example 52, 6-cyclopropaneamido-4-({2-methoxy-3-[2-(^2H3)methyl-2H-1,2,3-triazol-4-yl]phenyl}amino)-N—(^2H3)methylpyridazine-3-carboxamide]

Compound: [2H]C([2H])([2H])NC(=O)c1nnc(NC(=O)C2CC2)cc1Nc1cccc(-c2cnn(C3COC3)n2)c1OC [Example 53, 6-cyclopropaneamido-4-({2-methoxy-3-[2-(oxetan-3-yl)-2H-1,2,3-triazol-4-yl]phenyl}amino)-N—(^2H3)methylpyridazine-3-carboxamide]
Efflux Ratio (Caco-2 cells [6]): 0.7
CACO2 (A-B) (Caco-2 cells [6]): 425 nm/s

CACO2 (A-B) (Caco-2 cells [3]): 180 nm/s
Compound: [2H]C([2H])([2H])NC(=O)c1nnc(NC(=O)C2CC2)cc1Nc1cccc(-c2cnn(C3CCC3)n2)c1OC [Example 54, 4-{[3-(2-cyclobutyl-2H-1,2,3-triazol-4-yl)-2-methoxyphenyl]amino}-6-cyclopropaneamido-N—(^2H3)methylpyridazine-3-carboxamide]

CACO2 (A-B) (Caco-2 cells [3]): 507 nm/s
Compound: [2H]C([2H])([2H])NC(=O)c1nnc(NC(=O)C2CC2)cc1Nc1ccc(C2CC2)c(-c2cnn(C)n2)c1OC [Example 55, 6-cyclopropaneamido-4-{[4-cyclopropyl-2-methoxy-3-(2-methyl-2H-1,2,3-triazol-4-yl)phenyl]amino}-N—(^2H3)methylpyridazine-3-carboxamide]

CACO2 (A-B) (Caco-2 cells [3]): 432 nm/s
Compound: [2H]C([2H])([2H])NC(=O)c1nnc(NC(=O)C2CC2)cc1Nc1cccc(-c2cnn(C)n2)c1OC(F)F [Example 56, 6-cyclopropaneamido-4-{[2-(difluoromethoxy)-3-(2-methyl-2H-1,2,3-triazol-4-yl)phenyl]amino}-N—(^2H3)methylpyridazine-3-carboxamide]

Compound: [2H]C([2H])([2H])NC(=O)c1nnc(NC(=O)N(C)CC)cc1Nc1nccc(-c2cnn(C)n2)c1OC [Example 58, 6-{[ethyl(methyl)carbamoyl]amino}-4-{[3-methoxy-4-(2-methyl-2H-1,2,3-triazol-4-yl)pyridin-2-yl]amino}-N—(^2H3)methylpyridazine-3-carboxamide]
Efflux Ratio (Caco-2 cells [6]): 0.6
CACO2 (A-B) (Caco-2 cells [6]): 314 nm/s

Compound: [2H]C([2H])([2H])NC(=O)c1nnc(NC(=O)N(C)C(C)C)cc1Nc1nccc(-c2cnn(C)n2)c1OC [Example 59, 4-{[3-methoxy-4-(2-methyl-2H-1,2,3-triazol-4-yl)pyridin-2-yl]amino}-N—(^2H3)methyl-6-{[methyl(propan-2-yl)carbamoyl]amino}pyridazine-3-carboxamide]
Efflux Ratio (Caco-2 cells [6]): 0.8
CACO2 (A-B) (Caco-2 cells [6]): 351 nm/s

CACO2 (A-B) (Caco-2 cells [3]): 340 nm/s
Compound: [2H]C([2H])([2H])NC(=O)c1nnc(NC(=O)C2CC2)cc1Nc1nccc(-c2cnn(C)n2)c1OC(F)F [Example 60, 6-cyclopropaneamido-4-{[3-(difluoromethoxy)-4-(2-methyl-2H-1,2,3-triazol-4-yl)pyridin-2-yl]amino}-N—(^2H3)methylpyridazine-3-carboxamide]

IC50 [5]: 120 nM
Papp A→B at 2 h, 3 μM (in vitro): 43.2 ×10⁻⁶ cm/s
efflux ratio at 2 h, 3 μM (in vitro): 0.4
Kp at 1.5 h ([2]; C57BL6, mouse, brain / plasma, 2 mg/kg, footnote *****: 2 mpk iv solution dose, exposures measured at 90 minutes, read-out: Ratio of exposure in brain to plasma (mouse)): 0.6
Compound: [2H]C([2H])([2H])NC(=O)c1nnc(NC(=O)C2CC2)cc1Nc1nc(F)cc(-c2cnn(C)n2)c1OC [Example 62, 6-(Cyclopropanecarboxamido)-4-((6-fluoro-3-methoxy-4-(2-methyl-2H-1,2,3-triazol-4-yl)pyridin-2-yl)amino)-N-(methyl-d3)pyridazine-3-carboxamide]
